Source: patent publication US20230364044A1, “Methods of Treating or Preventing Acute Respiratory Distress Syndrome” (YALE UNIVERSITY, priority 2018, published 2023)

What was measured:
[1] = system: WT mice (hyperoxia-induced lung injury); experiment: Hyperoxia-induced lung injury in mice, BAL readouts (total cells, protein, LDH, Amplex Red oxidants, IL-1β, IL-6); format: in vivo
Protocol: FIG. 1 illustrates an exemplary T3 administration regime in mice. WT mice were nebulized with triiodothyronine (T3, 40 μg/kg) for 1 day or 3 days or propylthiouracil (PTU, 100 μg/kg) for 3 days prior to 72 h continuous hyperoxia exposure.
FIGS. 2A-2F illustrate the finding that T3 attenuates hyperoxia-induced lung injury, inflammation, and oxidants in WT mice. WT mice were nebulized with T3 (40 μg/kg) for 1 day or 3 days, or PTU (100 μg/kg) for 3 days prior to 72 h continuous hyperoxia exposure. Control mice were exposed to room air (RA). […] IL-1β (FIG. 2E) and IL-6 (FIG. 2F) were detected by ELISA in BALF. The values are expressed as mean±SD and analyzed by Mann-Whitney test n=6 for each group). *p<0.05, vs RA; **p<0.05, vs hyperoxia without pretreatment.
WT, PINK1−/−, and Parkin−/− mice were nebulized with T3 (40 μg/kg) for 3 days or no pretreatment prior to 72 h continuous hyperoxia exposure. […] IL-1β (FIG. 4E) and IL-6 (FIG. 4F) were detected by ELISA in BALF. The values are expressed as mean±SD and analyzed by Mann-Whitney test n=6 for each group). *p<0.05, vs WT no T3 RA; **p<0.05, vs WT no T3 hyperoxia; #p<0.05, vs corresponding RA; ##p<0.05, vs corresponding no T3 hyperoxia.
FIGS. 6A-6F illustrate the finding that GC-1 pretreatment prevents hyperoxia-induced lung injury and accelerates recovery. WT mice were orally gavaged with GC-1 (40 μm/kg) and then exposed to RA or to continuous hyperoxia for 72 h (H3). Recovery phase was initiated after 72 h hyperoxia (R1-3, 1, 2 3 and 6 days post-hyperoxia). Cells recovered from BAL were counted as BAL total cell counts (FIG. 6A). […] IL-6 (FIG. 6E) and IL-1β (FIG. 6F) was detected by ELISA in BALF. The values are expressed as mean±SD and analyzed by Mann-Whitney test (n=4 for each group). *p<0.05 versus no GC-1 RA; **p<0.05 versus no GC-1 H3; #p<0.05 versus corresponding no GC-1.

[2] = system: mouse lungs; experiment: Immunoblot of lung lysates from mice exposed to hyperoxia; format: in vivo
Protocol: FIG. 3 illustrates the finding that T3 pretreatment increases mitochondrial biogenesis/fusion/mitophagy and decreases ER stress & apoptosis. WT mice were nebulized with T3 (40 μg/kg) for 1 day or 3 days or PTU (100 μg/kg) for 3 days prior to 72 h continuous hyperoxia exposure. Lysates were isolated and immunoblotted against antibodies as listed. ([…] was used as protein loading control.
FIG. 5 illustrates the finding that T3 pretreatment increased Mito anti-ROS potential, biogenesis and mitophagy via PINK 1. WT and PINK1-KO mice were nebulized with T3 (40 μg/kg) for 3 days prior to 72 h continuous hyperoxia exposure. Lysates were isolated and immunoblotted against antibodies as listed. β-Actin was used as protein loading control.
FIG. 7 illustrates the finding that GC-1 pretreatment decreased hyperoxia-induced Mito dysfunction, ER stress and apoptosis. WT mice were orally gavaged with GC-1 (40 μm/kg) and exposed to RA or to hyperoxia for 72 h (H3). A time course of recovery after 72 h hyperoxia is shown (R1-3, 1, 2 3 and 6 days post-hyperoxia). Lysates from mouse lungs were immunoblotted against the listed antibodies (Abs).
FIG. 8 illustrates the finding that GC-1 pretreatment increases Tie2 activation and decreases Ang2. WT mice were orally gavaged with GC-1 (40 μm/kg) and exposed to RA or to hyperoxia for 72 h (H3). A time course of recovery after 72 h hyperoxia is shown (R1-3, 1, 2 3 and 6 days post-hyperoxia). Lysates from mouse lungs were immunoblotted against the listed antibodies.

[3] = WT mice nebulized with T3 (40 μg/kg) for 1 day or 3 days prior to 72 h hyperoxia, FIG. 3
[4] = WT mice orally gavaged with GC-1 (40 μm/kg), 72 h hyperoxia and recovery, FIG. 8

N[C@@H](Cc1cc(I)c(Oc2ccc(O)c(I)c2)c(I)c1)C(=O)O [T3, (S)-2-amino-3-[4-(4-hydroxy-3-iodophenoxy)-3,5-diiodophenyl]propanoic acid] was tested, and the hyperoxia-induced oxidants ([1]; WT mice nebulized with T3 (40 μg/kg) for 1 day or 3 days prior to 72 h continuous hyperoxia, Amplex Red, BAL fluid) was “attenuates”, the hyperoxia-induced lung injury ([1]; WT mice nebulized with T3 (40 μg/kg) for 1 day or 3 days prior to 72 h continuous hyperoxia, FIGS. 2A-2F) was “attenuates” and the hyperoxia-induced inflammation ([1]; WT mice nebulized with T3 (40 μg/kg) for 1 day or 3 days prior to 72 h continuous hyperoxia, IL-1β, IL-6 in BALF) was “attenuates”. For the same compound, the “mediator of T3 effects against hyperoxia-induced lung injury” value ([1]; WT, PINK1−/− and Parkin−/− mice nebulized with T3 (40 μg/kg) for 3 days prior to 72 h hyperoxia, FIGS. 4A-4F) was “PINK 1, not Parkin, mediates T3 effects”, the “Mito anti-ROS potential, biogenesis and mitophagy” value ([2]; WT and PINK1-KO mice nebulized with T3 (40 μg/kg) for 3 days prior to 72 h hyperoxia, via PINK 1, FIG. 5) was “increased” and the “ER stress & apoptosis” value [2, 3] was “decreases”. For the same compound, the mitochondrial biogenesis/fusion/mitophagy [2, 3] was “increases”.
For Cc1cc(OCC(=O)O)cc(C)c1Cc1ccc(O)c(C(C)C)c1 [GC-1, 2-(4-(4-hydroxy-3-isopropylbenzyl)-3,5-dimethylphenoxy)acetic acid], the hyperoxia-induced lung injury ([1]; WT mice orally gavaged with GC-1 (40 μm/kg), then 72 h continuous hyperoxia (H3), FIGS. 6A-6F) was “prevents”, the recovery after hyperoxia ([1]; WT mice orally gavaged with GC-1 (40 μm/kg), recovery phase 1, 2 3 and 6 days post-hyperoxia) was “accelerates” and the “hyperoxia-induced Mito dysfunction, ER stress and apoptosis” value ([2]; WT mice orally gavaged with GC-1 (40 μm/kg), 72 h hyperoxia and recovery, FIG. 7) was “decreased”. The Ang2 [2, 4] was “decreases” and the Tie2 activation [2, 4] was “increases”.
